Reference: patent US20250109140A1, “5-[5-(PIPERIDIN-4-YL)THIENO[3,2-C]PYRAZOL-2-YL]INDAZOLE DERIVATIVES AND RELATED COMPOUNDS AS MODULATORS FOR SPLICING NUCLEIC ACIDS AND FOR THE TREATMENT OF PROLIFERATIVE DISEASES” (REMIX THERAPUTICS INC., priority 2022, published 2025)
Read-outs that look alike come from different tables or passages of the source.

Legend:
SMN2 mRNA = assay: Splicing RT-qPCR gene panel, SMN2 canonical junction (CJ) mRNA; format: cell-based; settings: Homo sapiens; Table 8; larger gene panel, decrease in CJ mRNA levels
How it was run: (§1)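 Junction-specific RT-qPCR read-out: CJ marks canonical transcript, AJ marks alternative-exon inclusion, each normalized to GAPDH, GUSB or PPIA. Cells (A673 or K562) were dosed for 24 h with compound up to 10 uM final in 11 3-fold steps. RQ from 2^(−ΔΔCt) against DMSO became percentage response.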

[1] = tested on: K562 (human chronic myelogenous leukemia) cells; assay: Cell viability, Cell Titer Glo 2.0 assay, K562 cells; format: cell-based; settings: 72 hours
Description: Compounds described herein were screened for toxicity in K562 (human chronic myelogenous leukemia) and SH-SY5Y (human neuroblastoma) cells using a Cell Titer Glo 2.0 assay.
Cells were plated at 500 cells/well (K562 cells) in 45 μL of IMDM supplemented with 10% FBS in a 384-well opaque plate. Wells containing only medium were used as a blank control. Test compounds (e.g., compounds of Formula (I), (III), (IV), (V), or (VI)) were first serially diluted in DMSO then diluted 1:100 with IMDM+10% FBS. The final concentration of DMSO was 0.1% in each well. The cells were incubated for 72 hours at 37° C. and 5% CO2 before assaying with Cell Titer Glo 2.0 reagent.

HiBiT-tagged MYB protein = assay: HiBiT protein abundance assay, MYB (K562 HiBiT knock-in cells); format: cell-based, human; settings: 24 hours treatment
Description: (§2) Compounds described herein were used to screen for effects on quantitative protein abundance using a HiBit assay system (Promega). Quantitative protein abundance was determined by measuring the protein levels of HiBit-tagged protein targets expressed in cell culture via luminescence using the Nano-Glo HiBiT Lytic Detection System, which uses a split complementation assay format to reconstitute NanoBiT enzyme to generate a luminescent signal. A protein abundance assay was developed such that endogenous protein targets could be modified with the HiBiT peptide tag and their abundance could be assessed after compound treatment. Briefly, K562 cell lines containing a HiBiT-modification were treated with various compounds described herein (e.g., compounds of Formulas (I), or (II)). After treatment for 24 hours, the protein abundance of a specific target was determined by measuring luminescence.
(§3) Cells were maintained in IMDM with 10% FBS. Before the assay, cells were diluted with […] growth media (IMDM+[…] media) and were seeded in a 384-well plate at a density of 10000 cells/well (for each cell line listed in Table 6). Each compound was prepared as a 10-point 3-fold serial dilution in DMSO with the top dose at a final concentration of […] in the well. Unmodified K562 cells were added at the previously specified density with DMSO to serve as an assay baseline and positive control (PC) and DMSO only with the respective modified cell lines was added to the negative control (NC) columns. Final DMSO concentration was kept at or below 0.25%. Treated cell plates were placed in an incubator at 37° C. with […] for 24 hours. After 24 hours, 25 μL of Complete HiflitLytic reagent was added to each well at room temperature (e.g. one plate requiring 10 mL Lytic Buffer, 100 μL LgBiT Protein, 200 μL Lytic Substrate), shaken for 5 minutes at 600 RPM, then left to sit for 10 minutes for signal to stabilize before reading on a Spark Cyto plate reader (Tecan) with a 500 ms measurement time.
(§4) To determine compound effects on protein abundance of each target in Table 6, the percent response for each respective cell line was calculated at each compound concentration as follows:
(§5) For the normalized response at each concentration, a four-parameter logistical regression was fit to the data and the response was interpolated at the 50% value to determine a concentration for protein abundance at 50% (IC50) the untreated control.

Target C = assay: HiBiT protein abundance assay, Target C (K562 HiBiT knock-in cells); format: cell-based, human; settings: 24 hours treatment
Description: • Promega Nano-Glo HiBiT Lytic Detection System (cat #N3030) • Corning 384-well TC-treated microplates (cat #3570) • Synthego Engineered Cells Knock-In Clones
as §3, §4, §5

HiBiT-tagged HTT protein = assay: HiBiT protein abundance assay, HTT (K562 HiBiT knock-in cells); format: cell-based, human; settings: 24 hours treatment
Description: as §2, §3, §4, §5

HTT mRNA = assay: Splicing RT-qPCR assay, HTT canonical (CJ) and alternative (AJ) junction mRNA; format: cell-based; settings: Homo sapiens; for EC50: AC50 = 50% response in AJ mRNA increase
How it was run: as §1

MYB mRNA = assay: Splicing RT-qPCR assay, MYB canonical (CJ) and alternative (AJ) junction mRNA; format: cell-based; settings: Homo sapiens; for EC50: AC50 = 50% response in AJ mRNA increase
How it was run: as §1

Target C mRNA = assay: Splicing RT-qPCR gene panel, Target C canonical junction (CJ) mRNA; format: cell-based; settings: Homo sapiens; Table 8; larger gene panel, decrease in CJ mRNA levels
How it was run: as §1

[2] = Table 7, RT-qPCR, A673 or K562 cells, 24 hours treatment
[3] = Table 7, IC50 = 50% response in CJ mRNA decrease, RT-qPCR, A673 or K562 cells, 24 hours treatment, read-out: HTT CJ
[4] = Table 8, larger gene panel, decrease in CJ mRNA levels, read-out: HTT CJ IC50
[5] = Table 7, IC50 = 50% response in CJ mRNA decrease, RT-qPCR, A673 or K562 cells, 24 hours treatment, read-out: MYB CJ
[6] = Table 8, larger gene panel, decrease in CJ mRNA levels, read-out: MYB CJ IC50

Row | SMILES | IC50 (SMN2 mRNA) [µM] | IC50 [1] [µM] | IC50 (HiBiT-tagged MYB protein) [µM] | IC50 (Target C) [µM] | IC50 (HiBiT-tagged HTT protein) [µM] | EC50 (HTT mRNA; [2]) [µM] | IC50 (HTT mRNA; [3]) [µM] | IC50 (HTT mRNA; [4]) [µM] | EC50 (MYB mRNA; [2]) [µM] | IC50 (MYB mRNA; [5]) [µM] | IC50 (MYB mRNA; [6]) [µM] | IC50 (Target C mRNA) [µM]
1 | Cc1nc2c(F)cc(-n3cc4sc(C5CCNCC5)cc4n3)cc2o1 [Compound 167] | 0.1 to 1 | 1 to 10 | 0.1 to 1 | 0.1 to 1 | 0.1 to 1 | 0.1 to 1 | 0.1 to 1 | 0.1 to 1 | 1 to 10 | 1 to 10 | 1 to 10 | 1 to 10
2 | Cc1nc2c(F)cc(-n3cc4sc(C5CCNCC5)cc4n3)cc2s1 [Compound 168] | 0.1 to 1 | 1 to 10 | 1 to 10 | 1 to 10 | 1 to 10 | 1 to 10 | 1 to 10 | 1 to 10 | 1 to 10 | > 10 | 1 to 10 | > 10
3 | Cc1cn2nc(-n3cc4sc(C5CCNCC5)cc4n3)nc2c(C)n1 [Compound 170] | 1 to 10 | 1 to 10 | 1 to 10 | 1 to 10 | 1 to 10 | 1 to 10 | 1 to 10 | 1 to 10 | 1 to 10 | 1 to 10 | 1 to 10 | 1 to 10
4 | Cn1cc2c(F)cc(-n3cc4cc(C5CCNCC5)sc4n3)cc2n1 [Compound 174] | 1 to 10 | 1 to 10 | 1 to 10 | > 10 | 1 to 10 | > 10 | > 10 | > 10 | > 10 | > 10 | > 10 | > 10
5 | Cn1cc2c(F)cc(-n3cc4sc(C5CCNCC5)cc4n3)cc2n1 [Compound 175] | > 10 | 1 to 10 | 1 to 10 | 1 to 10 | 1 to 10 | > 10 | > 10 | > 10 | > 10 | > 10 | > 10 | > 10

Continued, values first:

Row | IC50 (SMN2 mRNA) [µM] | IC50 [1] [µM] | IC50 (HiBiT-tagged MYB protein) [µM] | IC50 (Target C) [µM] | IC50 (HiBiT-tagged HTT protein) [µM] | EC50 (HTT mRNA; [2]) [µM] | IC50 (HTT mRNA; [3]) [µM] | IC50 (HTT mRNA; [4]) [µM] | EC50 (MYB mRNA; [2]) [µM] | IC50 (MYB mRNA; [5]) [µM] | IC50 (MYB mRNA; [6]) [µM] | IC50 (Target C mRNA) [µM] | SMILES
6 | 1 to 10 | 1 to 10 | 1 to 10 | 1 to 10 | 1 to 10 | 1 to 10 | 1 to 10 | 1 to 10 | 1 to 10 | 1 to 10 | 1 to 10 | 1 to 10 | Cc1cn2cc(-n3cc4sc(C5CCNCC5)cc4n3)ncc2n1 [Compound 169]
7 | 0.1 to 1 | 1 to 10 | 0.1 to 1 | 0.1 to 1 | 0.1 to 1 | 0.1 to 1 | 0.1 to 1 | 0.1 to 1 | 1 to 10 | 1 to 10 | 1 to 10 | 1 to 10 | Cc1cn2nc(-n3cc4sc(C5CCNCC5)cc4n3)cc2c(C)n1 [Compound 171]
8 | 0.1 to 1 | 1 to 10 | 1 to 10 | 0.1 to 1 | 0.1 to 1 | 0.1 to 1 | 0.1 to 1 | 0.1 to 1 | 0.1 to 1 | 1 to 10 | 0.1 to 1 | 1 to 10 | Cc1cn2cc(-n3cc4sc(C5CCNCC5)cc4n3)cc(Cl)c2n1 [Compound 172]
